Experiments:
[1] = test system: Pythium ultimum; assay: Pythium ultimum / liquid culture (seedling damping off); type: cell-based; details: Globisporangium ultimum, liquid culture in PDB, 24 °C, 2-3 days after application, read-out: control of Pythium ultimum (inhibition of growth, photometric) compared to untreated control
Method: Pythium ultimum/Liquid Culture (Seedling Damping Off):
Mycelia fragments and oospores of a newly grown liquid culture of the fungus are directly mixed into nutrient broth (PDB potato dextrose broth). After placing a (DMSO) solution of test compound into a microtiter plate (96-well format), the nutrient broth containing the fungal mycelia/spore mixture is added. The test plates are incubated at 24° C. and the inhibition of growth is determined photometrically 2-3 days after application.

[2] = test system: Phytophthora infestans; assay: whole plant or invertebrate; type: in vivo; details: in Solanum lycopersicum, foliar, read-out: control of Phytophthora infestans compared to untreated control
[3] = test system: Plasmopara viticola; assay: whole plant or invertebrate; type: in vivo; details: foliar, read-out: control of Plasmopara viticola compared to untreated control

| SMILES | inhibition at 20 ppm [1] | pest or weed control at 200 ppm [2] | pest or weed control at 200 ppm [3] |
| --- | --- | --- | --- |
| CCN(C(=O)c1ccc2ncc(-c3ccc(NC(=O)OC)nc3)n2c1)c1ccc(Cl)cc1 [Compound 129, methyl N-[5-[6-[(4-chlorophenyl)-ethyl-carbamoyl]imidazo[1,2-a]pyridin-3-yl]-2-pyridyl]carbamate] | ≥ 80% | ≥ 80% | – |
| COC(=O)Nc1ccc(-c2cnc3ccc(C(=O)N(C)c4cc(OC)cc(OC)c4)cn23)cn1 [Compound 58, methyl N-[5-[6-[(3,5-dimethoxyphenyl)-methyl-carbamoyl]imidazo[1,2-a]pyridin-3-yl]-2-pyridyl]carbamate] | ≥ 80% | – | ≥ 80% |
| CNC(=O)CN(C(=O)c1ccc2ncc(-c3ccc(NC(=O)OC)nc3)n2c1)c1ccc(F)c(OC)c1 [Compound 97, methyl N-[5-[6-[(4-fluoro-3-methoxy-phenyl)-[2-(methylamino)-2-oxo-ethyl]carbamoyl]imidazo[1,2-a]pyridin-3-yl]-2-pyridyl]carbamate] | ≥ 80% | ≥ 80% | – |
| C#Cc1cccc(N(C)C(=O)c2ccc3ncc(-c4ccc(NC(=O)OC)nc4)n3c2)c1 [Compound 43, methyl N-[5-[6-[(3-ethynylphenyl)-methyl-carbamoyl]imidazo[1,2-a]pyridin-3-yl]-2-pyridyl]carbamate] | ≥ 80% | ≥ 80% | – |
| COC(=O)Nc1ccc(-c2cnc3ccc(C(=O)N(C)c4cncc(OC)c4)cn23)cn1 [Compound 55, methyl N-[5-[6-[(5-methoxy-3-pyridyl)-methyl-carbamoyl]imidazo[1,2-a]pyridin-3-yl]-2-pyridyl]carbamate] | ≥ 80% | ≥ 80% | – |
| CNC(=O)Nc1ccc(-c2cnc3ccc(C(=O)N(C)c4ccc(F)c(OC)c4)cn23)cc1 [Compound 80, N-(4-fluoro-3-methoxy-phenyl)-N-methyl-3-[4-(methylcarbamoyl-amino)phenyl]imidazo[1,2-a]pyridine-6-carboxamide] | ≥ 80% | ≥ 80% | – |
| CNC(=O)c1cccc(N(C)C(=O)c2ccc3ncc(-c4ccc(NC(=O)OC)nc4)n3c2)c1 [Compound 115, methyl N-[5-[6-[methyl-[3-(methylcarbamoyl)phenyl]carbamoyl]imidazo[1,2-a]pyridin-3-yl]-2-pyridyl]carbamate] | ≥ 80% | ≥ 80% | – |
| COC(=O)Nc1ccc(-c2cnc3ccc(C(=O)N(c4ccc(F)cc4)C4CCC4)cn23)cn1 [Compound 109, methyl N-[5-[6-[cyclobutyl-(4-fluorophenyl)carbamoyl]imidazo [1,2-a]pyridin-3-yl]-2-pyridyl]carbamate] | ≥ 80% | ≥ 80% | – |
| COC(=O)Nc1ccc(-c2cnc3ccc(C(=O)N(CCC#N)c4ccc(F)cc4)cn23)cn1 [Compound 132, methyl N-[5-[6-[2-cyanoethyl-(4-fluorophenyl)carbamoyl]imidazo [1,2-a]pyridin-3-yl]-2-pyridyl]carbamate] | ≥ 80% | ≥ 80% | – |
| COC(=O)Nc1ccc(-c2cnc3ccc(C(=O)N(CC(C)C)c4ccccc4)cn23)cn1 [Compound 134, methyl N-[5-[6-[isobutyl(phenyl)carbamoyl]imidazo[1,2-a]pyridin-3-yl]-2-pyridyl]carbamate] | – | ≥ 80% | – |
| COC(=O)Nc1ccc(-c2cnc3ccc(C(=O)N(C)c4cccc(F)c4)cn23)cn1 [Compound 52, methyl N-[5-[6-[(3-fluorophenyl)-methyl-carbamoyl]imidazo[1,2-a]pyridin-3-yl]-2-pyridyl]carbamate] | ≥ 80% | ≥ 80% | – |
| COC(=O)Nc1ccc(-c2cnc3ccc(C(=O)N(CCC#N)c4cccc(C)c4)cn23)cn1 [Compound 130, methyl N-[5-[6-[2-cyanoethyl(m-tolyl)carbamoyl]imidazo [1,2-a]pyridin-3-yl]-2-pyridyl]carbamate] | ≥ 80% | ≥ 80% | – |
| COC(=O)Nc1ccc(-c2cnc3ccc(C(=O)N(CCC#N)c4ccc(Cl)cc4)cn23)cn1 [Compound 128, methyl N-[5-[6-[(4-chlorophenyl)-(2-cyanoethyl)carbamoyl]imidazo[1,2-a]pyridin-3-yl]-2-pyridyl]carbamate] | ≥ 80% | ≥ 80% | – |
| CNC(=O)Nc1ccc(-c2cnc3ccc(C(=O)N(C)c4ccc(F)c(OC)c4)cn23)cn1 [Compound 81, N-(4-fluoro-3-methoxy-phenyl)-N-methyl-3-[6-(methylcarbamoyl-amino)-3-pyridyl]imidazo[1,2-a]pyridine-6-carboxamide] | ≥ 80% | ≥ 80% | – |
| CONC(=O)Nc1ccc(-c2cnc3ccc(C(=O)N(C)c4ccc(F)c(OC)c4)cn23)cn1 [Compound 99] | ≥ 80% | ≥ 80% | – |
| COC(=O)Nc1ccc(-c2cnc3c(C4CC4)cc(C(=O)N(C)c4ccc(F)cc4)cn23)cn1 [Compound 83, methyl N-[5-[8-cyclopropyl-6-[(4-fluorophenyl)-methyl-carbamoyl]imidazo[1,2-a]pyridin-3-yl]-2-pyridyl]carbamate] | ≥ 80% | ≥ 80% | – |
| COCCOc1cc(N(C)C(=O)c2ccc3ncc(-c4ccc(NC(=O)OC)nc4)n3c2)ccc1F [Compound 77, methyl N-[5-[6-[[4-fluoro-3-(2-methoxyethoxy)phenyl]-methyl-carbamoyl]imidazo[1,2-a]pyridin-3-yl]-2-pyridyl]carbamate] | ≥ 80% | ≥ 80% | – |
| CCN(C(=O)c1ccc2ncc(-c3ccc(NC(=O)OC)nc3)n2c1)c1ccc(OC)c(OC)c1 [Compound 119, methyl N-[5-[6-[(3,4-dimethoxyphenyl)-ethyl-carbamoyl]imidazo[1,2-a]pyridin-3-yl]-2-pyridyl]carbamate] | – | ≥ 80% | – |
| COC(=O)Nc1ccc(-c2cnc3ccc(C(=O)N(C)c4cccc(Cl)c4)cn23)cn1 [Compound 62, methyl N-[5-[6-[(3-chlorophenyl)-methyl-carbamoyl]imidazo[1,2-a]pyridin-3-yl]-2-pyridyl]carbamate] | ≥ 80% | ≥ 80% | – |
| CC(=O)Nc1ccc(-c2cnc3c(C)cc(C(=O)N(C)c4ccc(F)cc4)cn23)cn1 [Compound 168, 3-(6-acetamido-3-pyridyl)-N-(4-fluorophenyl)-N,8-dimethyl-imidazo[1,2-a]pyridine-6-carboxamide] | ≥ 80% | ≥ 80% | – |
| COC(=O)Nc1ccc(-c2cnc3ccc(C(=O)N(c4ccc(F)cc4)C(C)C)cn23)cn1 [Compound 140, methyl N-[5-[6-[(4-fluorophenyl)-isopropyl-carbamoyl]imidazo[1,2-a]pyridin-3-yl]-2-pyridyl]carbamate] | ≥ 80% | ≥ 80% | – |
| COC(=O)Nc1ccc(-c2cnc3ccc(C(=O)N(C)c4ccc(C)c(C)c4)cn23)cn1 [Compound 65, methyl N-[5-[6-[(3,4-dimethylphenyl)-methyl-carbamoyl]imidazo[1,2-a]pyridin-3-yl]-2-pyridyl]carbamate] | ≥ 80% | – | – |
| CCOCCN(C(=O)c1ccc2ncc(-c3ccc(NC(=O)OC)nc3)n2c1)c1ccc(Cl)cc1 [Compound 123, methyl N-[5-[6-[(4-chlorophenyl)-(2-ethoxyethyl)carbamoyl]imidazo[1,2-a]pyridin-3-yl]-2-pyridyl]carbamate] | ≥ 80% | ≥ 80% | – |
| COC(=O)Nc1ccc(-c2cnc3ccc(C(=O)N(C)c4ccnc(F)c4)cn23)cn1 [Compound 71, methyl N-[5-[6-[(2-fluoro-4-pyridyl)-methyl-carbamoyl]imidazo[1,2-a]pyridin-3-yl]-2-pyridyl]carbamate] | ≥ 80% | ≥ 80% | – |
| CCc1cccc(N(C)C(=O)c2ccc3ncc(-c4ccc(NC(=O)OC)cc4)n3c2)c1 [Compound 10, methyl N-[4-[6-[(3-ethylphenyl)-methyl-carbamoyl]imidazo[1,2-a]pyridin-3-yl]phenyl]carbamate] | ≥ 80% | ≥ 80% | – |
| CCN(C(=O)c1ccc2ncc(-c3ccc(NC(=O)OC)nc3)n2c1)c1cccc(F)c1 [Compound 145, methyl N-[5-[6-[ethyl-(3-fluorophenyl)carbamoyl]imidazo[1,2-a]pyridin-3-yl]-2-pyridyl]carbamate] | ≥ 80% | – | – |
| CCN(C(=O)c1ccc2ncc(-c3ccc(NC(=O)OC)nc3)n2c1)c1cccc(C#N)c1 [Compound 141, methyl N-[5-[6-[(3-cyanophenyl)-ethyl-carbamoyl]imidazo[1,2-a]pyridin-3-yl]-2-pyridyl]carbamate] | ≥ 80% | – | – |
| COC(=O)Nc1ccc(-c2cnc3ccc(C(=O)N(CS(C)(=O)=O)c4ccc(F)c(OC)c4)cn23)cn1 [Compound 92, methyl N-[5-[6-[(4-fluoro-3-methoxy-phenyl)-(methylsulfonylmethyl)carbamoyl]imidazo[1,2-a]pyridin-3-yl]-2-pyridyl] carbamate] | ≥ 80% | ≥ 80% | – |
| CCOC(=O)c1cccc(N(CC)C(=O)c2ccc3ncc(-c4ccc(NC(=O)OC)nc4)n3c2)c1 [Compound 122, ethyl 3-[ethyl-[3-[6-(methoxycarbonyl-amino)-3-pyridyl]imidazo[1,2-a]pyridine-6-carbonyl]amino]benzoate] | ≥ 80% | – | – |
| CCOC(=O)CN(C(=O)c1ccc2ncc(-c3ccc(NC(=O)OC)nc3)n2c1)c1ccc(F)cc1 [Compound 150, ethyl 2-(4-fluoro-N-[3-[6-(methoxy-carbonylamino)-3-pyridyl]imidazo[1,2-a]pyridine-6-carbonyl]anilino)acetate] | ≥ 80% | – | – |

Source: patent US20240425500A1 (priority 2021, published 2024)
